Common to all, as to format: functional, organism-based
One assay deals with Leishmania donovani. As to the kind of experiment: In vitro inhibitory activity against Leishmania donovani (PP75).
For a further assay, the system named is Leishmania amazonensis. As to the kind of experiment: In vitro inhibitory activity against Leishmania amazonensis (PH8).
A further assay concerns Leishmania braziliensis. As to the kind of experiment: In vitro inhibitory activity against Leishmania braziliensis (M2903).

Converted amounts (≈) assume the structure as drawn. Bounds are passed on as bounds.

In the case of `COc1ccc(Cc2nn(C)c(=O)c3ccccc23)cc1`, the IC50 in the assay with Leishmania donovani, in the assay on Leishmania amazonensis and in the assay with Leishmania braziliensis was at least 100 µg/mL each time.

As to `OC1(Cc2ccc(Cl)cc2)c2ccccc2C2=NCCN21` (stereo unspecified), the IC50 with Leishmania donovani, in the assay with Leishmania amazonensis and with Leishmania braziliensis was at least 100 µg/mL in each case.

Take `O=C(Cc1ccc2c(c1)OCO2)c1ccccc1C(=O)N1CCCCC1`: the IC50 in the assay with Leishmania donovani, in the assay with Leishmania amazonensis and in the assay with Leishmania braziliensis was at least 100 µg/mL each time.

As for `O=C(C(=O)c1ccccc1C(=O)N1CCCCC1)c1ccc2c(c1)OCO2`, the IC50 in the assay with Leishmania donovani, in the assay on Leishmania amazonensis and in the assay on Leishmania braziliensis was at least 100 µg/mL each time.

As for `COc1ccc(/C=C2\OC(=O)c3ccccc32)cc1OC`, the IC50 in the assay with Leishmania donovani, with Leishmania amazonensis and in the assay with Leishmania braziliensis was at least 100 µg/mL in each case.

In the case of `O=C(C(=O)c1ccccc1C(=O)N1CCCCC1)c1ccccc1`, the IC50 in the assay on Leishmania donovani, with Leishmania amazonensis and in the assay on Leishmania braziliensis was 75 µg/mL (≈ 233 µM) in each case.

Consider `COc1ccc(CC2(O)c3ccccc3C3=NCCCN32)cc1OC` (stereo unspecified), for which the 50% inhibitory concentration (IC50) in the assay on Leishmania donovani, in the assay with Leishmania amazonensis and in the assay with Leishmania braziliensis was at least 100 µg/mL each time.

As for `COc1ccc(C(=O)C(=O)c2ccccc2C(=O)N2CCCCC2)cc1OC`, the IC50 in the assay with Leishmania donovani, in the assay with Leishmania amazonensis and in the assay with Leishmania braziliensis was at least 100 µg/mL in each case.

As for `COc1cc(/C=C2\OC(=O)c3ccccc32)cc(OC)c1OC`, the IC50 (usually the point on the concentration scale where inhibition reaches its midpoint) was at least 100 µg/mL in the assay on Leishmania donovani, 52 µg/mL (≈ 166 µM) with Leishmania amazonensis and at least 100 µg/mL with Leishmania braziliensis.

Turning to `COc1ccc(CC(=O)c2ccccc2C(=O)N2CCCCC2)cc1`, the IC50 in the assay with Leishmania donovani, in the assay with Leishmania amazonensis and in the assay with Leishmania braziliensis was at least 100 µg/mL throughout.

With `COc1ccc(CC2(O)c3ccccc3C(=O)N2NC(C)(C)C)cc1` (stereo unspecified), the IC50 with Leishmania donovani, in the assay with Leishmania amazonensis and in the assay with Leishmania braziliensis was at least 100 µg/mL throughout.

With `Cn1nc(Cc2ccccc2)c2ccccc2c1=O`, the IC50 with Leishmania donovani, with Leishmania amazonensis and in the assay on Leishmania braziliensis was at least 100 µg/mL throughout.

`O=C1O/C(=C\c2ccc(Cl)cc2)c2ccccc21`: the concentration for half-maximal inhibition (IC50) in the assay on Leishmania donovani is 52 µg/mL (≈ 203 µM); in the assay on Leishmania amazonensis it was at least 100 µg/mL; in the assay on Leishmania braziliensis, at least 100 µg/mL.

As for `O=C(Cc1ccccc1)c1ccccc1C(=O)N1CCCCC1`, the half-inhibitory concentration (IC50) in the assay with Leishmania donovani, in the assay on Leishmania amazonensis and with Leishmania braziliensis was at least 100 µg/mL each time.

Take `OC1(Cc2ccc(Cl)cc2)c2ccccc2C2=NCCCN21` (stereo unspecified): the IC50 with Leishmania donovani, with Leishmania amazonensis and with Leishmania braziliensis was at least 100 µg/mL throughout.

Regarding `O=C1O/C(=C\c2ccc3c(c2)OCO3)c2ccccc21`, the IC50 with Leishmania donovani, with Leishmania amazonensis and with Leishmania braziliensis was at least 100 µg/mL throughout.

Turning to `COc1cc(Cc2nnc(O)c3ccccc23)cc(OC)c1OC`, the IC50 in the assay on Leishmania donovani, in the assay on Leishmania amazonensis and in the assay on Leishmania braziliensis was at least 100 µg/mL each time.

`COc1cc(Cc2nn(C)c(=O)c3ccccc23)cc(OC)c1OC`: the half-maximal inhibitory concentration (IC50) with Leishmania donovani, in the assay with Leishmania amazonensis and with Leishmania braziliensis was at least 100 µg/mL in each case.

As for `COc1cc(CC2(O)c3ccccc3C3=NCCCN32)cc(OC)c1OC` (stereo unspecified), the IC50 in the assay on Leishmania donovani, in the assay on Leishmania amazonensis and in the assay on Leishmania braziliensis was at least 100 µg/mL throughout.

For `OC1(Cc2ccc3c(c2)OCO3)c2ccccc2C2=NCCCN21` (stereo unspecified), the IC50 in the assay on Leishmania donovani, with Leishmania amazonensis and in the assay on Leishmania braziliensis was at least 100 µg/mL throughout.

Consider `COc1ccc(CC2(O)c3ccccc3C3=NCCN32)cc1` (stereo unspecified), for which the IC50 with Leishmania donovani, with Leishmania amazonensis and in the assay on Leishmania braziliensis was at least 100 µg/mL in each case.

With `Oc1nnc(Cc2ccc(Cl)cc2)c2ccccc12`, the IC50 in the assay with Leishmania donovani, in the assay on Leishmania amazonensis and in the assay on Leishmania braziliensis was at least 100 µg/mL each time.

In the case of `COc1ccc(CC2(O)c3ccccc3C3=NCCN32)cc1OC` (stereo unspecified), the IC50 in the assay with Leishmania donovani, in the assay with Leishmania amazonensis and with Leishmania braziliensis was at least 100 µg/mL in each case.

In the case of `OC1(Cc2ccc3c(c2)OCO3)c2ccccc2C2=NCCN21` (stereo unspecified), the IC50 in the assay with Leishmania donovani, with Leishmania amazonensis and with Leishmania braziliensis was at least 100 µg/mL each time.

Consider `COc1ccc(/C=C2/c3ccccc3C(=O)N2NC(C)(C)C)cc1`, for which the IC50 with Leishmania donovani, with Leishmania amazonensis and with Leishmania braziliensis was at least 100 µg/mL in each case.

As for `O=C(C(=O)c1ccccc1C(=O)N1CCCCC1)c1ccc(Cl)cc1`, the IC50 with Leishmania donovani is 28 µg/mL (≈ 78.7 µM); in the assay on Leishmania amazonensis, 25 µg/mL (≈ 70.3 µM); in the assay with Leishmania braziliensis, 52 µg/mL (≈ 146 µM).

For `COc1ccc(Cc2nnc(O)c3ccccc23)cc1`, the IC50 in the assay with Leishmania donovani, in the assay on Leishmania amazonensis and in the assay with Leishmania braziliensis was at least 100 µg/mL each time.

Take `Oc1nnc(Cc2ccc3c(c2)OCO3)c2ccccc12`: the IC50 in the assay with Leishmania donovani, in the assay with Leishmania amazonensis and in the assay on Leishmania braziliensis was at least 100 µg/mL throughout.

For `OC1(Cc2ccccc2)c2ccccc2C2=NCCN21` (stereo unspecified), the 50% inhibitory concentration (IC50) with Leishmania donovani, in the assay on Leishmania amazonensis and with Leishmania braziliensis was 60 µg/mL (≈ 227 µM) each time.

Turning to `O=c1[nH]nc(Cc2ccccc2)c2ccccc12`, the IC50 in the assay on Leishmania donovani, with Leishmania amazonensis and with Leishmania braziliensis was at least 100 µg/mL each time.

Regarding `OC1(Cc2ccccc2)c2ccccc2C2=NCCCN21` (stereo unspecified), the concentration for half-maximal inhibition (IC50) with Leishmania donovani, in the assay on Leishmania amazonensis and in the assay on Leishmania braziliensis was 45 µg/mL (≈ 162 µM) each time.

As for `COc1ccc(CCc2cc(O)cc(OC)c2)cc1`, the IC50 in the assay on Leishmania donovani, in the assay with Leishmania amazonensis and in the assay on Leishmania braziliensis was at least 100 µg/mL each time.

With `O=C(Cc1ccc(Cl)cc1)c1ccccc1C(=O)N1CCCCC1`, the IC50 with Leishmania donovani, with Leishmania amazonensis and in the assay with Leishmania braziliensis was at least 100 µg/mL each time.

Consider `COc1ccc(C(=O)C(=O)c2ccccc2C(=O)N2CCCC2)cc1`, for which the IC50 with Leishmania donovani, in the assay on Leishmania amazonensis and in the assay on Leishmania braziliensis was at least 100 µg/mL throughout.

For `COc1ccc(/C=C2\OC(=O)c3ccccc32)cc1`, the IC50 in the assay with Leishmania donovani, in the assay on Leishmania amazonensis and in the assay with Leishmania braziliensis was at least 100 µg/mL in each case.

`COc1ccc(Cc2nn(C)c(=O)c3ccccc23)cc1OC`: the IC50 with Leishmania donovani, in the assay with Leishmania amazonensis and with Leishmania braziliensis was at least 100 µg/mL in each case.

Consider `COc1cc(C(=O)C(=O)c2ccccc2C(=O)N2CCCCC2)cc(OC)c1OC`, for which the results for the IC50 with Leishmania donovani, in the assay with Leishmania amazonensis and in the assay with Leishmania braziliensis were 52 µg/mL (≈ 126 µM), 28 µg/mL (≈ 68.1 µM) and 52 µg/mL (≈ 126 µM), respectively.

As to `COC(=O)c1c(CCc2ccc(OC)cc2)cc(O)cc1OC`, the IC50 in the assay on Leishmania donovani, in the assay on Leishmania amazonensis and in the assay with Leishmania braziliensis was at least 100 µg/mL each time.

Regarding `COc1ccc(CC2(O)c3ccccc3C3=NCCCN32)cc1` (stereo unspecified), the half-inhibitory concentration (IC50) in the assay on Leishmania donovani, in the assay with Leishmania amazonensis and in the assay on Leishmania braziliensis was at least 100 µg/mL each time.

On to `O=C1O/C(=C\c2ccccc2)c2ccccc21`, for which the IC50 with Leishmania donovani, with Leishmania amazonensis and in the assay with Leishmania braziliensis was 45 µg/mL (≈ 202 µM) throughout.

As to `COc1ccc(CCc2cc(O)cc(OC)c2C(=O)N2CCCCC2)cc1`, the IC50 worked out at 7 µg/mL (≈ 18.9 µM) with Leishmania donovani, 7 µg/mL (≈ 18.9 µM) in the assay with Leishmania amazonensis and 10 µg/mL (≈ 27.1 µM) in the assay on Leishmania braziliensis.

For the compound `CCN(CC)C(=O)c1ccccc1C(=O)C(=O)c1ccc(OC)cc1`, the IC50 in the assay with Leishmania donovani, in the assay on Leishmania amazonensis and in the assay on Leishmania braziliensis was 75 µg/mL (≈ 221 µM) in each case.

For the compound `Cn1nc(Cc2ccc(Cl)cc2)c2ccccc2c1=O`, the IC50 with Leishmania donovani is 64 µg/mL (≈ 225 µM); with Leishmania amazonensis, at least 100 µg/mL; with Leishmania braziliensis it was at least 100 µg/mL.

Take `COc1cc(CC(=O)c2ccccc2C(=O)N2CCCCC2)cc(OC)c1OC`: the IC50 in the assay with Leishmania donovani was determined as 20 µg/mL (≈ 50.3 µM); in the assay with Leishmania amazonensis it was 10 µg/mL (≈ 25.2 µM); with Leishmania braziliensis, 7 µg/mL (≈ 17.6 µM).

As for `COc1ccc(Cc2nnc(O)c3ccccc23)cc1OC`, the IC50 in the assay on Leishmania donovani, in the assay with Leishmania amazonensis and in the assay on Leishmania braziliensis was at least 100 µg/mL throughout.

`COc1ccc(C(=O)C(=O)c2ccccc2C(=O)N2CCCCC2)cc1`: the IC50 was 80 µg/mL (≈ 228 µM) with Leishmania donovani, at least 100 µg/mL in the assay on Leishmania amazonensis and 80 µg/mL (≈ 228 µM) with Leishmania braziliensis.

Consider `COc1ccc(CC(=O)c2ccccc2C(=O)N2CCCCC2)cc1OC`, for which the IC50 in the assay with Leishmania donovani, in the assay with Leishmania amazonensis and with Leishmania braziliensis was at least 100 µg/mL each time.

As to `COc1ccc(CCc2cc(OC(C)=O)cc(OC)c2C(=O)O)cc1`, the IC50 with Leishmania donovani, with Leishmania amazonensis and in the assay on Leishmania braziliensis was 62 µg/mL (≈ 180 µM) each time.

For the compound `Cn1nc(Cc2ccc3c(c2)OCO3)c2ccccc2c1=O`, the IC50 with Leishmania donovani, in the assay on Leishmania amazonensis and in the assay on Leishmania braziliensis was at least 100 µg/mL throughout.

Consider `COc1cc(CC2(O)c3ccccc3C3=NCCN32)cc(OC)c1OC` (stereo unspecified), for which the IC50 in the assay with Leishmania donovani, in the assay with Leishmania amazonensis and with Leishmania braziliensis was at least 100 µg/mL throughout.

As for `COc1ccc(CCc2cc(O)cc(OC)c2C(=O)O)cc1` [ISONOTHOLAENIC ACID], the IC50 in the assay with Leishmania donovani, in the assay on Leishmania amazonensis and with Leishmania braziliensis was 32 µg/mL (≈ 106 µM) each time.

Take `N=C(N)c1ccc(OCCCCCOc2ccc(C(=N)N)cc2)cc1` [PENTAMIDINE]: the concentration for half-maximal inhibition (IC50) with Leishmania donovani, with Leishmania amazonensis and in the assay on Leishmania braziliensis was 1.3 µg/mL (≈ 3.82 µM) throughout.

The values above are taken from ChEMBL document CHEMBL1133906, “Leishmanicidal activity of some stilbenoids and related heterocyclic compounds” (Bioorg Med Chem Lett, 2001).
